Source: article PMC3029496 (Biochemistry, 2010)
Where two headings read alike, the source gives them in different places.

Tests used:
[1] = target: Mycobacterium tuberculosis PncA (MtPncA) (Mycobacterium tuberculosis, UniProt I6XD65)
PncA [2] = target: T1, PncA (Mycobacterium tuberculosis, UniProt I6XD65); test: biochemical; assay type: biochemical
NC(=O)c1cnccn1 = test: purified protein, by the assay type; conditions: pH 7.5; 25.0 °C
PncA [3] = target: T1, PncA; assay type: biochemical
PncA [4] = target: T1, PncA; test: Inactivation of PncA by iodoacetamide; assay type: biochemical; conditions: concentration and pH dependent loss of activity

T1 sequence (I6XD65 whole entry): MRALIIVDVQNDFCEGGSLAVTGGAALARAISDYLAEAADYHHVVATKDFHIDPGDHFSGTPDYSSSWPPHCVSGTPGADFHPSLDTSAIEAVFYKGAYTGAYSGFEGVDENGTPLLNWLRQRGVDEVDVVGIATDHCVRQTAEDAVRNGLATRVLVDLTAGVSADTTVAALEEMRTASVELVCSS
Chain of Mycobacterium tuberculosis PncA (MtPncA) (I6XD65 whole entry): as above

## N#Cc1cccnc1 [3-pyridinecarbonitrile]
[1]
  enzymatic activity with the compound as substrate: Neither compound is a substrate
PncA [2]
  mode of inhibition: reversible, competitive inhibitor
PncA [2]; Ki, reversible, competitive inhibitor
  Ki: ~100 µM

## O=C(O)CN(CCN(CC(=O)O)CC(=O)O)CC(=O)O [EDTA, ethylenediaminetetraacetic acid]
[1]
  effect of addition on MtPncA activity: neither the addition of 5 mM EDTA, nor reported inhibitory metals (Zn^+2 for MtPncA) resulted in any decrease in activity

## NC(=O)c1ccc(N)nc1 [6-aminonicotinamide]
[1]
  enzymatic activity with the compound as substrate: did not observe any enzymatic activity

## (Mycobacterium tuberculosis H37Rv)
NC(=O)c1cnccn1
  Km: 300 ± 40 µM
  kcat: 3.8 ± 0.1 s⁻¹
  kcat/Km: 13000 M⁻¹ s⁻¹

## NC(=O)c1ccccc1 [benzamide]
[1]
  enzymatic activity with the compound as substrate: did not observe any enzymatic activity

## N#Cc1cnccn1 [pyrazinecarbonitrile]
[1]
  enzymatic activity with the compound as substrate: Neither compound is a substrate
PncA [3]
  kinact/KI: 975 M⁻¹ s⁻¹
  mode of inhibition: irreversible inactivator
PncA [3]; pH 7.5
  kinact: Kinact = 0.06 ± 0.01 sec^−1 Ki = 61 ± 3 μM
PncA [3]; read-out: Ki (inactivation), pH 7.5
  KI (inactivation): 61 µM

## O=Cc1cccnc1 [3-pyridine carboxaldehyde]
PncA [2]
  mode of inhibition: competitive inhibitor

## NC(=O)CI [iodoacetamide]
PncA [4]
  inactivation of PncA: inactivator of PncA
